# Reference: patent US11419801B2, “Personal care composition” (Conopco, Inc., priority 2017, dated 2022)
# System: IL-6
# Test: Anti-inflammation efficacy in THP-1 in vitro assay: IL-6 in supernatant of PMA-differentiated, LPS-stimulated THP-1 monocytes (BD Elisa kit)
# Type: cell-based
# Conditions: Table 1, LPS 1 μg/ml, 24 hours incubation, concentration of active(s) as given per example, lower = higher anti-inflammatory potential
# Protocol: The following procedure was used to test the anti-inflammation efficacy of the various actives alone as well as in combination. In the examples, HR means hexyl resorcinol, DHA means docosahexaenoic acid. • (i) 5×10^5 THP-1 monocytes were placed into 24-well plates, with 100 nM […] in the culture media to differentiate the cells. • (ii) After 72 hours differentiation, treatments as follows were applied to the cells. […] (2) LPS-1 μg/ml; (3) Dex-50 nM; (4) DHA-200 μM; (5) DHA-100 μM; (6) DHA-20 μM; (7) HR-50 μM; (8) HR-25 μM; (9) HR-100 μM; […] (11) DHA-100 μM+HR-50 μM; (12) DHA-100 μM+HR-25 μM; (13) DHA-20 μM+HR-100 μM (14) DHA-20 μM+HR-10 μM. • (iii) After 24 hours incubation the supernatants were collected. • (iv) Then IL-6 concentration was tested in the supernatant by BD Elisa kit. The lower the percentage, the higher the anti-inflammatory potential. […] Further information about the experiment nos 12 to 24 is as follows: • Example 12: […] Combination of 50 μM DHA and 12.5 μM of HR. • Example 23: […] Combination of 50 μM DHA and 12.5 μM of ZnCl2. • Example 31: […] Combination of 12.5 μM DHA and 3.125 μM of ZnCl2. Experiments were carried out, according to the procedure described earlier, at various concentrations of DHA along with certain other actives outside the invention viz. BOP (benzoyl peroxide) and SDS (sodium dodecyl sulphate). These actives have been disclosed as additional ingredients in EP0138480 A1. The data below is expressed in % IL-6 inhibition rate in Table-3 below. • Example 33, 34, 35, 36: […] Combination of 50 μM DHA and 12.5 μM of BPO. • Example 43: […] Combination of 12.5 μM DHA and 3.125 μM of BPO. • Example 45, 46, 47, 48: […] Combination of 50 μM DHA and 12.5 μM of SDS. • Example 51: […] Combination of 12.5 μM DHA and 3.125 μM of SDS.
row,Structure (SMILES),concentration of IL-6 as a % of that obtained for LPS (% of LPS) [%]
1,"CCCCCCc1ccc(O)cc1O [Example 6, hexyl resorcinol]",41.1
2,"CCCCCCc1ccc(O)cc1O [Example 4, hexyl resorcinol]",41.1
3,"CC/C=C\C/C=C\C/C=C\C/C=C\C/C=C\C/C=C\CCC(=O)O [Example 3, docosahexaenoic acid]",58.5
4,"CCCCCCc1ccc(O)cc1O [Example 5, hexyl resorcinol]",54.5
5,"CCCCCCc1ccc(O)cc1O [Example 7, hexyl resorcinol]",63.1
6,"CC/C=C\C/C=C\C/C=C\C/C=C\C/C=C\C/C=C\CCC(=O)O [Example 2, docosahexaenoic acid]",14.7

# Same assay, conditions: Table 2, LPS 1 μg/mL, DHA, HR, ZnCl2 alone and combined, concentration per example
row,Structure (SMILES),% of LPS (IL-6) [%]
1,"[Cl-].[Cl-].[Zn+2] [Example 26, Zinc chloride]",96.3
2,"CCCCCCc1ccc(O)cc1O [Example 17, hexyl resorcinol]",43.0
3,"CCCCCCc1ccc(O)cc1O [Example 20, hexyl resorcinol]",66.4
4,"[Cl-].[Cl-].[Zn+2] [Example 28, Zinc chloride]",91.6
5,"CCCCCCc1ccc(O)cc1O [Example 19, hexyl resorcinol]",60.3
6,"CCCCCCc1ccc(O)cc1O [Example 18, hexyl resorcinol]",55.4
7,"CC/C=C\C/C=C\C/C=C\C/C=C\C/C=C\C/C=C\CCC(=O)O [Example 15, docosahexaenoic acid]",48.8
8,"CC/C=C\C/C=C\C/C=C\C/C=C\C/C=C\C/C=C\CCC(=O)O [Example 16, docosahexaenoic acid]",63.1
9,"CC/C=C\C/C=C\C/C=C\C/C=C\C/C=C\C/C=C\CCC(=O)O [Example 13, docosahexaenoic acid]",9.9
10,"[Cl-].[Cl-].[Zn+2] [Example 25, Zinc chloride]",93.4
11,"[Cl-].[Cl-].[Zn+2] [Example 27, Zinc chloride]",97.7
12,"CC/C=C\C/C=C\C/C=C\C/C=C\C/C=C\C/C=C\CCC(=O)O [Example 14, docosahexaenoic acid]",29.0

# Same assay, conditions: Table 3, LPS 1 μg/mL, DHA, BPO, SDS alone and combined, concentration per example
row,Structure (SMILES),% of LPS (IL-6) [%]
1,"CC/C=C\C/C=C\C/C=C\C/C=C\C/C=C\C/C=C\CCC(=O)O [Example 34, docosahexaenoic acid]",36.0
2,"O=C(OOC(=O)c1ccccc1)c1ccccc1 [Example 38, benzoyl peroxide]",100.6
3,"CC/C=C\C/C=C\C/C=C\C/C=C\C/C=C\C/C=C\CCC(=O)O [Example 33, docosahexaenoic acid]",10.7
4,"CC/C=C\C/C=C\C/C=C\C/C=C\C/C=C\C/C=C\CCC(=O)O [Example 36, docosahexaenoic acid]",72.0
5,"O=C(OOC(=O)c1ccccc1)c1ccccc1 [Example 37, benzoyl peroxide]",103.4
6,"O=C(OOC(=O)c1ccccc1)c1ccccc1 [Example 39, benzoyl peroxide]",102.7
7,"CC/C=C\C/C=C\C/C=C\C/C=C\C/C=C\C/C=C\CCC(=O)O [Example 35, docosahexaenoic acid]",56.8
8,"O=C(OOC(=O)c1ccccc1)c1ccccc1 [Example 40, benzoyl peroxide]",95.1

# Same assay, conditions: Table 3, LPS 1 μg/mL, DHA, BPO, SDS alone and combined, concentration per example, sulphate
row,Structure (SMILES),% of LPS (IL-6) [%]
1,"CCCCCCCCCCCCOS(=O)(=O)[O-].[Na+] [Example 47, sodium dodecyl sulphate]",81.3
2,"CCCCCCCCCCCCOS(=O)(=O)[O-].[Na+] [Example 45, sodium dodecyl sulphate]",84.6
3,"CCCCCCCCCCCCOS(=O)(=O)[O-].[Na+] [Example 46, sodium dodecyl sulphate]",86.1
4,"CCCCCCCCCCCCOS(=O)(=O)[O-].[Na+] [Example 48, sodium dodecyl sulphate]",80.5
